Experiments:
Test in all cases: DSF thermal shift
Type in all cases: binding
Conditions in all cases: 10 µM inhibitor; read-out: Tm shift
[1] = molecular target: T1, ALK5 (Homo sapiens, UniProt P36897)
T1 construct: purchased Nanosyn (enzymatic panel); SGC in-house recombinant human kinases (DSF panel); Invitrogen (ALK1-6)
In short: (§1)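 Thermal melt, qPCR cycler; kinase 1–2 µM, compound 10 µM.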

[2] = molecular target: T2, PKMYT1 (Homo sapiens, UniProt Q99640)
T2 construct: purchased Nanosyn (enzymatic panel); SGC in-house recombinant human kinases (DSF panel); Invitrogen (ALK1-6)
In short: as §1

[3] = molecular target: T3, PCTAIRE1 (Homo sapiens, UniProt Q00536)
T3 construct: purchased Nanosyn (enzymatic panel); SGC in-house recombinant human kinases (DSF panel); Invitrogen (ALK1-6)
In short: as §1

[4] = molecular target: T4, SRPK2 (Homo sapiens, UniProt P78362)
T4 construct: purchased Nanosyn (enzymatic panel); SGC in-house recombinant human kinases (DSF panel); Invitrogen (ALK1-6)
In short: as §1

[5] = molecular target: T5, AAK1 (Homo sapiens, UniProt Q2M2I8)
T5 construct: purchased Nanosyn (enzymatic panel); SGC in-house recombinant human kinases (DSF panel); Invitrogen (ALK1-6)
In short: as §1

[6] = molecular target: T6, BRK (Homo sapiens, UniProt Q13882)
T6 construct: purchased Nanosyn (enzymatic panel); SGC in-house recombinant human kinases (DSF panel); Invitrogen (ALK1-6)
In short: as §1

[7] = molecular target: T7, MEK6 (Homo sapiens, UniProt P52564)
T7 construct: purchased Nanosyn (enzymatic panel); SGC in-house recombinant human kinases (DSF panel); Invitrogen (ALK1-6)
In short: as §1

[8] = molecular target: T8, DYRK2 (Homo sapiens, UniProt Q92630)
T8 construct: purchased Nanosyn (enzymatic panel); SGC in-house recombinant human kinases (DSF panel); Invitrogen (ALK1-6)
T8 sequence (Q92630 1-601): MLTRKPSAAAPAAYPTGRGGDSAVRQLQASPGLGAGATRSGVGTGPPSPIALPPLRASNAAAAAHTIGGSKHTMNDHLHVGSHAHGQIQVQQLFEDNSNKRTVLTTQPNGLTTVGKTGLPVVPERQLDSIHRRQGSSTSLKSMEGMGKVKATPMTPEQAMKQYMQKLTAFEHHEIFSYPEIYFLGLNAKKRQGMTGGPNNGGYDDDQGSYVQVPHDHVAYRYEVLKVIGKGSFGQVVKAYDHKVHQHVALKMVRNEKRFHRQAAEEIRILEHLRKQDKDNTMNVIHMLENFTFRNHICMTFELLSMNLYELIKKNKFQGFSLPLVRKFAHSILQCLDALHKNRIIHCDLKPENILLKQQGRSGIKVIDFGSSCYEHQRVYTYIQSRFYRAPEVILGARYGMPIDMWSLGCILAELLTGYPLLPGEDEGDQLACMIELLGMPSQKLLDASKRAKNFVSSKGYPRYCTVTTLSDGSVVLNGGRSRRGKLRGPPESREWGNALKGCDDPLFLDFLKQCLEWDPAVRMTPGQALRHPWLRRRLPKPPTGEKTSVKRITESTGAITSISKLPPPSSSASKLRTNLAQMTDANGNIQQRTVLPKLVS
In short: as §1

[9] = molecular target: T9, DRAK1 (Homo sapiens, UniProt Q9UEE5)
T9 construct: purchased Nanosyn (enzymatic panel); SGC in-house recombinant human kinases (DSF panel); Invitrogen (ALK1-6)
In short: as §1

[10] = molecular target: T10, ZAK (Homo sapiens, UniProt Q9NYL2)
T10 construct: purchased Nanosyn (enzymatic panel); SGC in-house recombinant human kinases (DSF panel); Invitrogen (ALK1-6)
In short: as §1

[11] = molecular target: T11, VRK1 (Homo sapiens, UniProt Q99986)
T11 construct: purchased Nanosyn (enzymatic panel); SGC in-house recombinant human kinases (DSF panel); Invitrogen (ALK1-6)
In short: as §1

[12] = molecular target: T12, RSK4 (Homo sapiens, UniProt Q9UK32)
T12 construct: purchased Nanosyn (enzymatic panel); SGC in-house recombinant human kinases (DSF panel); Invitrogen (ALK1-6)
In short: as §1

[13] = molecular target: T13, CDKL1 (Homo sapiens, UniProt Q00532)
T13 construct: purchased Nanosyn (enzymatic panel); SGC in-house recombinant human kinases (DSF panel); Invitrogen (ALK1-6)
In short: as §1

[14] = molecular target: T14, DCAMKL1 (Homo sapiens, UniProt O15075)
T14 construct: purchased Nanosyn (enzymatic panel); SGC in-house recombinant human kinases (DSF panel); Invitrogen (ALK1-6)
In short: as §1

[15] = molecular target: T15, BMPRII (Homo sapiens, UniProt Q13873)
T15 construct: purchased Nanosyn (enzymatic panel); SGC in-house recombinant human kinases (DSF panel); Invitrogen (ALK1-6)
In short: as §1

[16] = molecular target: T16, GUCY2D (Homo sapiens, UniProt Q02846)
T16 construct: purchased Nanosyn (enzymatic panel); SGC in-house recombinant human kinases (DSF panel); Invitrogen (ALK1-6)
In short: as §1

[17] = molecular target: T17, TNIK (Homo sapiens, UniProt Q9UKE5)
T17 construct: purchased Nanosyn (enzymatic panel); SGC in-house recombinant human kinases (DSF panel); Invitrogen (ALK1-6)
In short: as §1

[18] = molecular target: T18, CDK8 (Homo sapiens, UniProt P49336)
T18 construct: purchased Nanosyn (enzymatic panel); SGC in-house recombinant human kinases (DSF panel); Invitrogen (ALK1-6)
In short: as §1

[19] = molecular target: T19, AKT3 (Homo sapiens, UniProt Q9Y243)
T19 construct: purchased Nanosyn (enzymatic panel); SGC in-house recombinant human kinases (DSF panel); Invitrogen (ALK1-6)
In short: as §1

[20] = molecular target: T20, CK2α1 (Homo sapiens, UniProt P68400)
T20 construct: purchased Nanosyn (enzymatic panel); SGC in-house recombinant human kinases (DSF panel); Invitrogen (ALK1-6)
In short: as §1

[21] = molecular target: T21, PKD2 (Homo sapiens, UniProt Q9BZL6)
T21 construct: purchased Nanosyn (enzymatic panel); SGC in-house recombinant human kinases (DSF panel); Invitrogen (ALK1-6)
In short: as §1

[22] = molecular target: T22, TOPK (Homo sapiens, UniProt Q96KB5)
T22 construct: purchased Nanosyn (enzymatic panel); SGC in-house recombinant human kinases (DSF panel); Invitrogen (ALK1-6)
In short: as §1

[23] = molecular target: T23, ALK1 (Homo sapiens, UniProt P37023)
T23 construct: purchased Nanosyn (enzymatic panel); SGC in-house recombinant human kinases (DSF panel); Invitrogen (ALK1-6)
In short: as §1

[24] = molecular target: T24, CK1γ3 (Homo sapiens, UniProt Q9Y6M4)
T24 construct: purchased Nanosyn (enzymatic panel); SGC in-house recombinant human kinases (DSF panel); Invitrogen (ALK1-6)
In short: as §1

[25] = molecular target: T25, DAPK3 (Homo sapiens, UniProt O43293)
T25 construct: purchased Nanosyn (enzymatic panel); SGC in-house recombinant human kinases (DSF panel); Invitrogen (ALK1-6)
In short: as §1

[26] = molecular target: T26, MYLK4 (Homo sapiens, UniProt Q86YV6)
T26 construct: purchased Nanosyn (enzymatic panel); SGC in-house recombinant human kinases (DSF panel); Invitrogen (ALK1-6)
In short: as §1

[27] = molecular target: T27, PKCη (Homo sapiens, UniProt P24723)
T27 construct: purchased Nanosyn (enzymatic panel); SGC in-house recombinant human kinases (DSF panel); Invitrogen (ALK1-6)
In short: as §1

[28] = molecular target: T28, DYRK1A (Homo sapiens, UniProt Q13627)
T28 construct: purchased Nanosyn (enzymatic panel); SGC in-house recombinant human kinases (DSF panel); Invitrogen (ALK1-6)
In short: as §1

[29] = molecular target: T29, NDR1 (Homo sapiens, UniProt Q15208)
T29 construct: purchased Nanosyn (enzymatic panel); SGC in-house recombinant human kinases (DSF panel); Invitrogen (ALK1-6)
In short: as §1

[30] = molecular target: T30, CAMK1δ (Homo sapiens, UniProt Q8IU85)
T30 construct: purchased Nanosyn (enzymatic panel); SGC in-house recombinant human kinases (DSF panel); Invitrogen (ALK1-6)
In short: as §1

[31] = molecular target: T31, GRK3 (Homo sapiens, UniProt P35626)
T31 construct: purchased Nanosyn (enzymatic panel); SGC in-house recombinant human kinases (DSF panel); Invitrogen (ALK1-6)
In short: as §1

T14 sequence (O15075 whole entry): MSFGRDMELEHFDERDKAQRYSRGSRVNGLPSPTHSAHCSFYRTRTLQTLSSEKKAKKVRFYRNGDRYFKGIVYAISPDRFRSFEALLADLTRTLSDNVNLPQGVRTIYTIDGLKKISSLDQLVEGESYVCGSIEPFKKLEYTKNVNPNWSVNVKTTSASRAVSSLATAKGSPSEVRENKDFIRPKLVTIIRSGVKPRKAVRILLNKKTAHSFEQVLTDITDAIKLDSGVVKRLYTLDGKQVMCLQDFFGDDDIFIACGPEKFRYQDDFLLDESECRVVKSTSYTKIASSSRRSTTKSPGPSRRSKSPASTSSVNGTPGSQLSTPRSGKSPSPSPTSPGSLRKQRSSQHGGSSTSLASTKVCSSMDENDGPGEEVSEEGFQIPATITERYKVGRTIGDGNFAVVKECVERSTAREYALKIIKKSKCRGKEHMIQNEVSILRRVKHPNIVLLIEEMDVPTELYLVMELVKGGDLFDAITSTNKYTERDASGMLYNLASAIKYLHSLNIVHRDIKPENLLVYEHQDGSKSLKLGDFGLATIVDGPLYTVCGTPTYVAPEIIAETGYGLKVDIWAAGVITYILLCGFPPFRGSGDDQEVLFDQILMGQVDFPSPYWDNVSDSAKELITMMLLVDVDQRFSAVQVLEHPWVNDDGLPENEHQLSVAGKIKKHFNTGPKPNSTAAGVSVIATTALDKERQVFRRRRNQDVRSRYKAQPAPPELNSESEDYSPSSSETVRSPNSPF
T12 sequence (Q9UK32 whole entry): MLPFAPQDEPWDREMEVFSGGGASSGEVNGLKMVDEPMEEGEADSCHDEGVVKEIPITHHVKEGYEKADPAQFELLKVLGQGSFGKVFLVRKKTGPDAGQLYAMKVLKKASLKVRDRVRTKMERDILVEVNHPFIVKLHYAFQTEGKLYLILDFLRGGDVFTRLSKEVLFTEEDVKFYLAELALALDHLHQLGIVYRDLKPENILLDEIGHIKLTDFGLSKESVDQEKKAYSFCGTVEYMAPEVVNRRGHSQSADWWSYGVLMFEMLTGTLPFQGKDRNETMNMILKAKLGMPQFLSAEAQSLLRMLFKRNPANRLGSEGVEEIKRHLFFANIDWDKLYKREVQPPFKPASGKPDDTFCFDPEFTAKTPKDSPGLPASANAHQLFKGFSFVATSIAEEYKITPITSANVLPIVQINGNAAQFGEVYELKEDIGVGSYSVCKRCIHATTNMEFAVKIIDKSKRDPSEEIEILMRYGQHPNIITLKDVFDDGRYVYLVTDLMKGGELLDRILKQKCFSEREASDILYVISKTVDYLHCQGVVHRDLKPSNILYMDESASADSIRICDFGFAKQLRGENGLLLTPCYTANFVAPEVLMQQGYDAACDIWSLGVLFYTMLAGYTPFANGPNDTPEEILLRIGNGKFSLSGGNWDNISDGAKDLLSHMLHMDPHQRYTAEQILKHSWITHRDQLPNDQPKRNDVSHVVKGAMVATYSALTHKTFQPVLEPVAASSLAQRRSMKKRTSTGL
T4 sequence (P78362 whole entry): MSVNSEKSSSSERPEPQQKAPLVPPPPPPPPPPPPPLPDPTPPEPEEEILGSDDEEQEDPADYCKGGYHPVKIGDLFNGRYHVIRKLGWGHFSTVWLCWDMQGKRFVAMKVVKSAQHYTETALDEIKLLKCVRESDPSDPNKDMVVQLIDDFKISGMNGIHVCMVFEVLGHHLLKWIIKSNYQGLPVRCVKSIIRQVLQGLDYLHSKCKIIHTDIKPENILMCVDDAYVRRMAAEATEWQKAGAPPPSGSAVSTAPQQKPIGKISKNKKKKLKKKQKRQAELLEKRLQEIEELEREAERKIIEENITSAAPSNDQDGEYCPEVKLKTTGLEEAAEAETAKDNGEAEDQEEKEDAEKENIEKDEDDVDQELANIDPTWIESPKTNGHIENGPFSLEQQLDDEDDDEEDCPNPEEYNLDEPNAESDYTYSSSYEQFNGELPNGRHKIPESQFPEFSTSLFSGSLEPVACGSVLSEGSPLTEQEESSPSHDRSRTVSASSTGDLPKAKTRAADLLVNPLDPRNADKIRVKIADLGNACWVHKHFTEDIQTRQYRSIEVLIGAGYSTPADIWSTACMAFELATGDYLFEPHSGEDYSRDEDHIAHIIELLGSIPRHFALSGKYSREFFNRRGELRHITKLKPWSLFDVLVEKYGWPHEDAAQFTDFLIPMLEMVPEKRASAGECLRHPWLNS
T30 sequence (Q8IU85 whole entry): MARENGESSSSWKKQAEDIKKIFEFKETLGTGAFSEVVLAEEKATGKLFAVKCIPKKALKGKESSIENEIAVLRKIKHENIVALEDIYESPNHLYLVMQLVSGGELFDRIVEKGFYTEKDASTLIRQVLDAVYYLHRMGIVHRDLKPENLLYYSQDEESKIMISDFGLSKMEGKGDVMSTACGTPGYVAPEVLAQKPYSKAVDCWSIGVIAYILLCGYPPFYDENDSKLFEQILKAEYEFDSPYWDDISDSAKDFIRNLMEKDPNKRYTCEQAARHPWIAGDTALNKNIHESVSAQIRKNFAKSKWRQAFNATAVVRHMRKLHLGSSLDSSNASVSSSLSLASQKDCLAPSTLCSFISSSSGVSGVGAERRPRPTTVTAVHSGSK
T3 sequence (Q00536 whole entry): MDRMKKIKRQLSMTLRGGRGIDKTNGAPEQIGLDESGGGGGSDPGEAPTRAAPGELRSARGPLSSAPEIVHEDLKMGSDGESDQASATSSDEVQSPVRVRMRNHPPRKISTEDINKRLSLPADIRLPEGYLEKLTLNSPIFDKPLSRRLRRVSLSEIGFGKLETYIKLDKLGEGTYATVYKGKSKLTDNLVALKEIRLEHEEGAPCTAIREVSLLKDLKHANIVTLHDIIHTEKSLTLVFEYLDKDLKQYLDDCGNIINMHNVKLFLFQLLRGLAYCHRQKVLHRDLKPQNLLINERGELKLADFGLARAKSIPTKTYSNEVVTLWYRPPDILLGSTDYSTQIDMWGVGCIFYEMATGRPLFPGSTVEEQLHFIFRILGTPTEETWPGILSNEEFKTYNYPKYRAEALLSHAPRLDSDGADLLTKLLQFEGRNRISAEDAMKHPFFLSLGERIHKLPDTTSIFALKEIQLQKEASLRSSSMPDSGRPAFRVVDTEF
T19 sequence (Q9Y243 whole entry): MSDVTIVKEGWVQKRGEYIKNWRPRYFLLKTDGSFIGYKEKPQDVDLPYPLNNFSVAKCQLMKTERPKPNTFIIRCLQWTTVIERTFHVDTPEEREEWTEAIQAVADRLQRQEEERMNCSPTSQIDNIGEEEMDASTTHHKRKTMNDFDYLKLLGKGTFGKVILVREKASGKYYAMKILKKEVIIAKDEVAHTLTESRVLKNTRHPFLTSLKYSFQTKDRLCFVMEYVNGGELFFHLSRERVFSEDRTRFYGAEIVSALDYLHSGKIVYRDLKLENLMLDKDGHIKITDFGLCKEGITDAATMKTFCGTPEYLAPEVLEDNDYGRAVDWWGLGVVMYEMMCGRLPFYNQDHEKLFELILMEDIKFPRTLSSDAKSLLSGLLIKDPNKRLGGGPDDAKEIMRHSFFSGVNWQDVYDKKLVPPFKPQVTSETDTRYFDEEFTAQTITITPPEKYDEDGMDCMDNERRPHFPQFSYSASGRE
T27 sequence (P24723 whole entry): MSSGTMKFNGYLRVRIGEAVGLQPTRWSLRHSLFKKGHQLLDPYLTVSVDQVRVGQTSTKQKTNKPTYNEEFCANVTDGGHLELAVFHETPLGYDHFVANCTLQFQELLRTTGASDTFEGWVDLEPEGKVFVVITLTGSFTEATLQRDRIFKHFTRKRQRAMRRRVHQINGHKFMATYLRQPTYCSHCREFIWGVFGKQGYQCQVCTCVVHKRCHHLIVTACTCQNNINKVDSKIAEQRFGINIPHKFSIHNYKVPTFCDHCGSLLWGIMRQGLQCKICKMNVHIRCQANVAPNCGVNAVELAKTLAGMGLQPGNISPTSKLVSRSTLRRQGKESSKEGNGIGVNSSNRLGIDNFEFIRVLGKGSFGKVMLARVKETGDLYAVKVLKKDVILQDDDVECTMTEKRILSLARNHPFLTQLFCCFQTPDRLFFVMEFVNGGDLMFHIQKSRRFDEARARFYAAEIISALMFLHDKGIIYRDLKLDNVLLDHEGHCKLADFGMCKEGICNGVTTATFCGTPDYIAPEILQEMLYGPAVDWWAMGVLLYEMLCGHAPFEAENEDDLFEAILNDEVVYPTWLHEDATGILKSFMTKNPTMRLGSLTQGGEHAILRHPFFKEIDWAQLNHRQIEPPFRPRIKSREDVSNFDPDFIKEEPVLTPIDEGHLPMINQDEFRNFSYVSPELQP
T23 sequence (P37023 22-503): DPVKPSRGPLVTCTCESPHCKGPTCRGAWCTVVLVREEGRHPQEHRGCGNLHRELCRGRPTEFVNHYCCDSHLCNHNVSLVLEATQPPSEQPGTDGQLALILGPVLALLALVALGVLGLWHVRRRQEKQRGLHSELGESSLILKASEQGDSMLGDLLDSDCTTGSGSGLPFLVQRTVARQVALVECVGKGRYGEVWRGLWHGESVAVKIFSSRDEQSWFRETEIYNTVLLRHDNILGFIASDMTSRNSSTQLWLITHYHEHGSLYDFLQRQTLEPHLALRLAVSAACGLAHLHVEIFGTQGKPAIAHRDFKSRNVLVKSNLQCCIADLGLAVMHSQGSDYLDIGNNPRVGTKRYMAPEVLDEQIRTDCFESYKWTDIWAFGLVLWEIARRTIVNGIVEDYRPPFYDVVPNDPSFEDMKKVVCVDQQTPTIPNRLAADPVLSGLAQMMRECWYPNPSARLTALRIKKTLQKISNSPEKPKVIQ
T22 sequence (Q96KB5 whole entry): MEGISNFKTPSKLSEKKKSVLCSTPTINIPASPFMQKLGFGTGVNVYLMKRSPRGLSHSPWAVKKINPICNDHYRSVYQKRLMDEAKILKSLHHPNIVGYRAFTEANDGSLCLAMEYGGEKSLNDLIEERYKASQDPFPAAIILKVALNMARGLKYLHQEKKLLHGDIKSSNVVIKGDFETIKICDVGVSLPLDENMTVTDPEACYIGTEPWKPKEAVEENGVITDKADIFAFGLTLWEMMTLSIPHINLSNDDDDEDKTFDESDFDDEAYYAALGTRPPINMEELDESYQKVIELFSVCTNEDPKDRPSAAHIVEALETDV

SMILES | ΔTm at 10 µM [1] [°C] | ΔTm at 10 µM [2] [°C] | ΔTm at 10 µM [3] [°C] | ΔTm at 10 µM [4] [°C] | ΔTm at 10 µM [5] [°C] | ΔTm at 10 µM [6] [°C] | ΔTm at 10 µM [7] [°C] | ΔTm at 10 µM [8] [°C] | ΔTm at 10 µM [9] [°C] | ΔTm at 10 µM [10] [°C] | ΔTm at 10 µM [11] [°C] | ΔTm at 10 µM [12] [°C] | ΔTm at 10 µM [13] [°C] | ΔTm at 10 µM [14] [°C] | ΔTm at 10 µM [15] [°C] | ΔTm at 10 µM [16] [°C] | ΔTm at 10 µM [17] [°C] | ΔTm at 10 µM [18] [°C] | ΔTm at 10 µM [19] [°C] | ΔTm at 10 µM [20] [°C] | other results
c1cc(-c2cnn3cc(-c4ccc(OCCN5CCCCC5)cc4)cnc23)ccn1 [Dorsomorphin] | 7.4 | 0.1 | 4.7 | 0.2 | 3.8 | 2.8 | 0.1 | 5.1 | 9 | 0.5 | 0.4 | 2.7 | 2 | 0.3 | 1.5 | -0.1 | 4.2 | 0.5 | 0.5 | 3.8 | ΔTm at 10 µM [21]: 0.1 °C; ΔTm at 10 µM [22]: 0.3 °C; ΔTm at 10 µM [23]: 10.6 °C; ΔTm at 10 µM [24]: 1.2 °C; ΔTm at 10 µM [25]: 1.2 °C; ΔTm at 10 µM [26]: 4.3 °C; ΔTm at 10 µM [27]: 0.9 °C; ΔTm at 10 µM [28]: 4.4 °C; ΔTm at 10 µM [29]: 2.8 °C; ΔTm at 10 µM [30]: -0.3 °C; ΔTm at 10 µM [31]: -0.1 °C
COc1cc(-c2cc(-c3cccc(O)c3)cnc2N)cc(OC)c1OC [K02288, 3-[6-amino-5-(3,4,5-trimethoxy-phenyl)-pyridin-3-yl]-phenol] | 11.6 | -0.4 | -1.8 | 0.2 | 0.5 | 0 | 1.9 | 0.3 | 1 | -0.1 | 0.5 | 1.4 | 0 | 0.1 | 3.5 |  | 6.1 | 0.1 | 0.5 | 0.3 | ΔTm at 10 µM [21]: 0.2 °C; ΔTm at 10 µM [22]: -0.2 °C; ΔTm at 10 µM [23]: 14.2 °C; ΔTm at 10 µM [24]: 2 °C; ΔTm at 10 µM [25]: 0.2 °C; ΔTm at 10 µM [26]: 1 °C; ΔTm at 10 µM [27]: 1.2 °C; ΔTm at 10 µM [28]: -0.9 °C; ΔTm at 10 µM [29]: 0.1 °C; ΔTm at 10 µM [30]: -0.3 °C; ΔTm at 10 µM [31]: 0.1 °C
c1ccc2c(-c3cnn4cc(-c5ccc(N6CCNCC6)cc5)cnc34)ccnc2c1 [LDN-193189] |  |  |  |  |  |  |  |  |  |  |  |  |  |  |  | -0.2 |  |  |  |  | 
